Measured values published in patent US20240299385A1 (ReWind Therapeutics NV, priority 2021, published 2024).

Target: T1, human GPR17 receptor (Homo sapiens, UniProt Q13304)
T1 construct: host or cells: HEK-293
Assay: Calcium mobilization functional assay (Fluo-8, FLIPR TETRA) in HEK-293 hGPR17 (Gα-q assay)
Assay type: cell-based
Settings: antagonism of MDL29,951 (~EC80) induced Ca2+ signal; cell line (HEK-293 hGPR17 or HEK-293 Suchi5 hGPR17) not given
Outline: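 Fluo-8-loaded HEK-293 hGPR17 cells (60 min dye loading, room temperature) were preincubated with compound for twenty minutes, then challenged with agonist MDL29,951 at ~EC80, 500 nM. Intracellular calcium release via Gα-q was recorded as FLIPR fluorescence for a further 2 minutes; compounds tested in duplicate.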

T1 sequence (Q13304 whole entry): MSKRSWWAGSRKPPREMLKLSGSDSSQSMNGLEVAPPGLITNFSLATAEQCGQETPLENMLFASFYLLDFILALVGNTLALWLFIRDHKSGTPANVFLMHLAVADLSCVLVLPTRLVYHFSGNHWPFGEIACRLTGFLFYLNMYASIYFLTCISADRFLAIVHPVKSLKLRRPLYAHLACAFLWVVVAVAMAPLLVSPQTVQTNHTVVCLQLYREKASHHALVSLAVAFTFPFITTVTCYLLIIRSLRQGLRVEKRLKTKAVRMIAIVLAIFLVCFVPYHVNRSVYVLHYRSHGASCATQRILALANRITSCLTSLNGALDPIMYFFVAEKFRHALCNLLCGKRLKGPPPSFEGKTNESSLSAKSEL

Structure (SMILES) | IC50 [µM]
O=S(=O)(Nc1cc(F)c(Br)cc1F)c1c[nH]cc1-c1cccc(F)c1 [Cpd 359, N-(4-bromo-2,5-difluoro-phenyl)-4-(3-fluorophenyl)-1H-pyrrole-3-sulfonamide] | 0.5 to 5
O=S(=O)(Nc1cc(F)c(OC(F)F)cc1F)c1c[nH]cc1-c1cccc(F)c1 [Cpd 360, N-[4-(difluoromethoxy)-2,5-difluoro-phenyl]-4-(3-fluorophenyl)-1H-pyrrole-3-sulfonamide] | < 0.5
O=S(=O)(Nc1cc(F)c(C(F)(F)F)cc1F)c1c[nH]c(-c2ccccc2C(F)(F)F)c1 [Cpd 361, N-[2,5-difluoro-4-(trifluoromethyl)phenyl]-5-[2-(trifluoromethyl)phenyl]-1H-pyrrole-3-sulfonamide] | 0.5 to 5
O=S(=O)(Nc1cc(F)c(C(F)(F)F)cc1F)c1c[nH]c(-c2ccc(Cl)cc2F)c1 [Cpd 362, 5-(4-chloro-2-fluoro-phenyl)-N-[2,5-difluoro-4-(trifluoromethyl)phenyl]-1H-pyrrole-3-sulfonamide] | 5 to 50
O=S(=O)(Nc1cc(F)c(C(F)(F)F)cc1F)c1c[nH]c(-c2c(F)cccc2Cl)c1 [Cpd 363, 5-(2-chloro-6-fluoro-phenyl)-N-[2,5-difluoro-4-(trifluoromethyl)phenyl]-1H-pyrrole-3-sulfonamide] | 0.5 to 5
O=S(=O)(Nc1cc(F)c(C(F)(F)F)cc1F)c1c[nH]cc1-c1cccc(F)c1 [Cpd 364, N-[2,5-difluoro-4-(trifluoromethyl)phenyl]-4-(3-fluorophenyl)-1H-pyrrole-3-sulfonamide] | 0.5 to 5
O=S(=O)(Nc1cc(F)c(C(F)(F)F)cc1F)c1c[nH]c(-c2cccc(C(F)(F)F)c2)c1 [Cpd 365, N-[2,5-difluoro-4-(trifluoromethyl)phenyl]-5-[3-(trifluoromethyl)phenyl]-1H-pyrrole-3-sulfonamide] | 0.5 to 5
O=S(=O)(Nc1cc(F)c(C(F)(F)F)cc1F)c1c[nH]c(-c2ccc(F)cc2F)c1 [Cpd 366, 5-(2,4-difluorophenyl)-N-[2,5-difluoro-4-(trifluoromethyl)phenyl]-1H-pyrrole-3-sulfonamide] | 0.5 to 5
CSc1cccc(Cc2c[nH]cc2S(=O)(=O)Nc2ccc(C#N)cc2F)c1 [Cpd 367, N-(4-cyano-2-fluoro-phenyl)-4-[(3-methylsulfanylphenyl)methyl]-1H-pyrrole-3-sulfonamide] | < 0.5
COCc1cccc(Cc2c[nH]cc2S(=O)(=O)Nc2ccc(C#N)cc2F)c1 [Cpd 368, N-(4-cyano-2-fluoro-phenyl)-4-[[3-(methoxymethyl)phenyl]methyl]-1H-pyrrole-3-sulfonamide] | 0.5 to 5
O=S(=O)(Nc1cc(F)c(C(F)(F)F)cc1F)c1c[nH]c(-c2ccc(C(F)(F)F)cn2)c1 [Cpd 369, N-[2,5-difluoro-4-(trifluoromethyl)phenyl]-5-[5-(trifluoromethyl)-2-pyridyl]-1H-pyrrole-3-sulfonamide] | 5 to 50
O=S(=O)(Nc1cc(F)c(C(F)(F)F)cc1F)c1c[nH]c(-c2cc(C(F)(F)F)ccn2)c1 [Cpd 370, N-[2,5-difluoro-4-(trifluoromethyl)phenyl]-5-[4-(trifluoromethyl)-2-pyridyl]-1H-pyrrole-3-sulfonamide] | 5 to 50
O=S(=O)(Nc1cc(F)c(C(F)(F)F)cc1F)c1c[nH]c(-c2cccc(Br)n2)c1 [Cpd 371, 5-(6-bromo-2-pyridyl)-N-[2,5-difluoro-4-(trifluoromethyl)phenyl]-1H-pyrrole-3-sulfonamide] | 0.5 to 5
N#Cc1ccc(NS(=O)(=O)c2c[nH]c(-c3cccc(Cl)n3)c2)c(F)c1 [Cpd 372, 5-(6-chloro-2-pyridyl)-N-(4-cyano-2-fluoro-phenyl)-1H-pyrrole-3-sulfonamide] | < 0.5
N#Cc1ccc(NS(=O)(=O)c2c[nH]c(-c3cccc(C(F)(F)F)n3)c2)c(F)c1 [Cpd 373, N-(4-cyano-2-fluoro-phenyl)-5-[6-(trifluoromethyl)-2-pyridyl]-1H-pyrrole-3-sulfonamide] | 0.5 to 5
N#Cc1ccc(NS(=O)(=O)c2c[nH]c(-c3cccc(Br)n3)c2)c(F)c1 [Cpd 374, 5-(6-bromo-2-pyridyl)-N-(4-cyano-2-fluoro-phenyl)-1H-pyrrole-3-sulfonamide] | < 0.5
O=S(=O)(Nc1cnc(C(F)(F)F)s1)c1c[nH]c(-c2ccccc2)c1 [Cpd 375, 5-phenyl-N-[2-(trifluoromethyl)thiazol-5-yl]-1H-pyrrole-3-sulfonamide] | 5 to 50
O=S(=O)(Nc1cc(Cl)c(C(F)(F)F)cc1F)c1c[nH]c(-c2ccccc2)c1 [Cpd 378, N-[5-chloro-2-fluoro-4-(trifluoromethyl)phenyl]-5-phenyl-1H-pyrrole-3-sulfonamide] | 0.5 to 5
O=S(=O)(Nc1cc(Cl)c(C(F)(F)F)cc1F)c1c[nH]c(-c2ccccn2)c1 [Cpd 379, N-[5-chloro-2-fluoro-4-(trifluoromethyl)phenyl]-5-pyridin-2-yl-1H-pyrrole-3-sulfonamide] | 0.5 to 5
N#Cc1ccc(NS(=O)(=O)c2c[nH]c(-c3cccc4cccnc34)c2)c(F)c1 [Cpd 380, N-(4-cyano-2-fluorophenyl)-5-(guinolin-8-yl)-1H-pyrrole-3-sulfonamide] | < 0.5

Structure (SMILES) | IC50 [µM]
N#Cc1ccc(NS(=O)(=O)c2c[nH]cc2-c2cccc3ccccc23)c(F)c1 [Cpd 381, N-(4-cyano-2-fluorophenyl)-4-naphthalen-1-yl-1H-pyrrole-3-sulfonamide] | 5 to 50
N#Cc1ccc(NS(=O)(=O)c2c[nH]c(-c3cccc4ccccc34)c2)c(F)c1 [Cpd 382, N-(4-cyano-2-fluorophenyl)-5-naphthalen-1-yl-1H-pyrrole-3-sulfonamide] | 0.5 to 5
Cc1c(C(F)(F)F)ccc(NS(=O)(=O)c2c[nH]c(-c3ccccn3)c2)c1F [Cpd 383, N-[2-fluoro-3-methyl-4-(trifluoromethyl)phenyl]-5-pyridin-2-yl-1H-pyrrole-3-sulfonamide] | 5 to 50
Cc1ccccc1Cc1c[nH]cc1S(=O)(=O)Nc1ccc(C#N)cc1F [Cpd 384, N-(4-cyano-2-fluorophenyl)-4-[(2-methylphenyl)methyl]-1H-pyrrole-3-sulfonamide] | 0.5 to 5
Cc1ccc(Cc2c[nH]cc2S(=O)(=O)Nc2ccc(C#N)cc2F)cc1 [Cpd 385, N-(4-cyano-2-fluorophenyl)-4-[(4-methylphenyl)methyl]-1H-pyrrole-3-sulfonamide] | 5 to 50
N#Cc1ccc(NS(=O)(=O)c2c[nH]cc2Cc2ccccc2C(F)(F)F)c(F)c1 [Cpd 386, N-(4-cyano-2-fluorophenyl)-4-[[2-(trifluoromethyl)phenyl]methyl]-1H-pyrrole-3-sulfonamide] | 5 to 50
N#Cc1ccc(NS(=O)(=O)c2c[nH]cc2Cc2ccc(C(F)(F)F)cc2)c(F)c1 [Cpd 387, N-(4-cyano-2-fluorophenyl)-4-[[4-(trifluoromethyl)phenyl]methyl]-1H-pyrrole-3-sulfonamide] | 5 to 50
N#Cc1ccc(NS(=O)(=O)c2c[nH]cc2Cc2ccccc2OC(F)(F)F)c(F)c1 [Cpd 388, N-(4-cyano-2-fluorophenyl)-4-[[2-(trifluoromethoxy)phenyl]methyl]-1H-pyrrole-3-sulfonamide] | 0.5 to 5
N#Cc1ccc(NS(=O)(=O)c2c[nH]cc2Cc2ccc(OC(F)(F)F)cc2)c(F)c1 [Cpd 389, N-(4-cyano-2-fluorophenyl)-4-[[4-(trifluoromethoxy)phenyl]methyl]-1H-pyrrole-3-sulfonamide] | 5 to 50
N#Cc1ccc(NS(=O)(=O)c2c[nH]cc2Cc2cccc(Br)c2)c(F)c1 [Cpd 391, 4-[(3-bromophenyl)methyl]-N-(4-cyano-2-fluorophenyl)-1H-pyrrole-3-sulfonamide] | < 0.5
N#Cc1ccc(NS(=O)(=O)c2c[nH]cc2Cc2ccsc2)c(F)c1 [Cpd 392, N-(4-cyano-2-fluorophenyl)-4-(thiophen-3-ylmethyl)-1H-pyrrole-3-sulfonamide] | < 0.5
O=S(=O)(Nc1cc(F)c(C(F)(F)F)cc1F)c1c[nH]c(-c2cc(F)ccc2F)c1 [Cpd 393, 5-(2,5-difluorophenyl)-N-[2,5-difluoro-4-(trifluoromethyl)phenyl]-1H-pyrrole-3-sulfonamide] | < 0.5
COc1c(Cl)cccc1-c1cc(S(=O)(=O)Nc2ccc(C#N)cc2F)c[nH]1 [Cpd 394, 5-(3-chloro-2-methoxyphenyl)-N-(4-cyano-2-fluorophenyl)-1H-pyrrole-3-sulfonamide] | < 0.5
N#Cc1ccc(NS(=O)(=O)c2c[nH]c(-c3nccc4ccccc34)c2)c(F)c1 [Cpd 396, N-(4-cyano-2-fluorophenyl)-5-isoquinolin-1-yl-1H-pyrrole-3-sulfonamide] | < 0.5
N#Cc1ccc(NS(=O)(=O)c2c[nH]c(-c3ccccc3OC3CC3)c2)c(F)c1 [Cpd 397, N-(4-cyano-2-fluorophenyl)-5-(2-cyclopropyloxyphenyl)-1H-pyrrole-3-sulfonamide] | 0.5 to 5
N#Cc1ccc(NS(=O)(=O)c2c[nH]cc2-c2cccs2)c(F)c1 [Cpd 398, N-(4-cyano-2-fluorophenyl)-4-thiophen-2-yl-1H-pyrrole-3-sulfonamide] | 0.5 to 5
O=S(=O)(Nc1cc(OC(F)F)c(Cl)cc1F)c1c[nH]c(-c2ccccc2)c1 [Cpd 399, N-[4-chloro-5-(difluoromethoxy)-2-fluorophenyl]-5-phenyl-1H-pyrrole-3-sulfonamide] | 0.5 to 5
N#Cc1ccc(NS(=O)(=O)c2c[nH]cc2-c2ccsc2)c(F)c1 [Cpd 400, N-(4-cyano-2-fluorophenyl)-4-thiophen-3-yl-1H-pyrrole-3-sulfonamide] | 0.5 to 5
Cc1cc(-c2c[nH]cc2S(=O)(=O)Nc2ccc(C#N)cc2F)cs1 [Cpd 401, N-(4-cyano-2-fluorophenyl)-4-(5-methylthiophen-3-yl)-1H-pyrrole-3-sulfonamide] | < 0.5
N#Cc1ccc(NS(=O)(=O)c2c[nH]cc2-c2cccc(C3CC3)c2)c(F)c1 [Cpd 402, N-(4-cyano-2-fluorophenyl)-4-(3-cyclopropylphenyl)-1H-pyrrole-3-sulfonamide] | 5 to 50
